The source of these data is PubChem BioAssay (NCI).

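48-hour exposure; five concentrations; linearly interpolated endpoints. TGI denotes the concentration required for complete inhibition of growth.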 Where a SMILES comes first, the peptide text is derived from it. [ ]: non-standard residue; d: D form. pGlu = O=C1CC[CH](C(=O)O)N1 Bounds are passed on as bounds.

Holding throughout (assay): DTP human tumour cell line panel, 48 h
Assay [1] concerns TK-10 renal.
Assay [2] deals with HCT-116 colon.
The test system of assay [3] is SK-OV-3 ovarian.
For assay [4], the system named is SF-268 CNS.
In assay [5] the test system is SK-MEL-28 melanoma.
Assay [6] concerns OVCAR-5 ovarian.
In assay [7] the test system is OVCAR-8 ovarian.
Assay [8] concerns HOP-92 NSCLC.
The test system of assay [9] is NCI-H226 lung.
Assay [10] has as its system HCT-15 colon.
Assay [11] relates to SR leukemia.
The subject of assay [12] is NCI-H522 lung.

The TGI is the concentration at which net growth stops. High values mean lower sensitivity of the cells, low ones greater sensitivity of the cells. For the compound `COc1ccc(S(=O)(=O)Nc2ccc(-c3csc(N4C(=O)/C(=C/c5ccccc5[N+](=O)[O-])N=C4c4ccccc4)n3)cc2)cc1Cl`, the TGI in assay [1], in assay [2], in assay [3], in assay [4], in [5] and in assay [6] was > 100 µM in each case. In addition, the TGI in assay [7] is > 100 µM; in assay [8] it was 87.5 µM; in [9] it was > 100 µM; in [10] it was 81.2 µM; in [11], > 100 µM; in [12], > 100 µM.

Take `Cc1nc(-c2ccccc2)cn2c1nc1ccccc12`: the TGI in assay [1] was > 74.7 µM; in assay [2] it was > 70.9 µM; in [3], 26 µM; in [4] it was > 66.8 µM; in assay [5], 72.8 µM; in [6] it was > 31.6 µM. Also, the TGI was 37.3 µM in assay [7]; 62.6 µM in assay [8]; 41.1 µM in [9]; > 68.5 µM in assay [10]; > 100 µM in assay [11]; > 66.8 µM in assay [12].

In the case of `C#C[C@]1(O)CC[C@H]2[C@@H]3CCC4=C/C(=N\OCCN5CCCCC5)CC[C@]4(C)[C@H]3CC[C@@]21C`, the TGI is 22.3 µM in [1]; 22.2 µM in assay [2]; 31.2 µM in assay [3]; 21.7 µM in assay [4]; 27.4 µM in assay [5]; 28.1 µM in assay [6]. Also, the TGI in assay [7] worked out at 21.2 µM; in [8] it was 50.8 µM; in assay [9], 39.5 µM; in [10], 23 µM; in assay [11], 5.17 µM; in assay [12], 6.08 µM.

Regarding `CC(C)C1CSC2N1C(=O)C2(OCc1ccccc1)C1CC1` (stereo not given), the TGI in [1], in assay [2], in assay [3], in [4], in assay [5] and in assay [6] was > 100 µM throughout. Besides, the total growth inhibition concentration (TGI) in [7], in assay [8], in assay [9], in assay [10], in [11] and in assay [12] was > 100 µM each time.

On to `CCOC(=O)C1(C(=O)OCC)C(C(C)(C)C)=C(C)c2ccccc21`, for which the TGI in assay [1] stood at 72.4 µM; in assay [2], 20.2 µM; in [3], 69.5 µM; in assay [4], 39.1 µM; in assay [5] it was 26.2 µM; in assay [6], 31.4 µM. For the same compound, the concentration for total growth inhibition (TGI) in assay [7] is 66.1 µM; in assay [8], 16.7 µM; in [9], 28.5 µM; in assay [10] it was 28.7 µM; in assay [11], > 100 µM; in [12] it was 22.2 µM.

For `O=C(O)c1nc2cc(Cl)ccc2[nH]c1=O`, the TGI in assay [1], in assay [2], in [3], in [4], in assay [5] and in [6] was > 100 µM in each case. The TGI in assay [7], in [8], in assay [9], in assay [10], in assay [11] and in assay [12] was > 100 µM in each case.

With `CC(NC(=O)C1CCC(=O)N1)C(=O)N1CCCC1C(N)=O` (stereo not drawn) ([pGlu]-Ala-Pro-NH2; configuration not given here), the TGI in assay [1], in assay [2], in assay [3], in [4], in assay [5] and in assay [6] was > 100 µM in each case. The concentration for total growth inhibition (TGI) in [7], in assay [8], in [9], in [10], in assay [11] and in [12] was > 100 µM in each case.

As to `CCOC(=O)c1c(O)cn2c1[nH]c1cccc3cccc2c31`, the TGI in assay [1], in assay [2], in assay [3], in [4], in assay [5] and in [6] was > 100 µM throughout. Besides, the total growth inhibition concentration (TGI) in assay [7], in assay [8], in assay [9], in assay [10], in assay [11] and in [12] was > 100 µM in each case.

Take `C(=N\c1nc2cc3sc(/N=C/c4ccccc4)nc3cc2s1)/c1ccccc1`: the TGI in assay [1], in assay [2], in [3], in assay [4], in assay [5] and in [6] was > 100 µM each time. Moreover, the TGI in assay [7] was > 100 µM; in [8] it was > 100 µM; in [9] it was > 74 µM; in assay [10], > 100 µM; in assay [11] it was > 100 µM; in assay [12], 97.4 µM.

Take `Cc1c(NC(=S)Nc2ccc([N+](=O)[O-])cc2)c(=O)n(-c2ccccc2)n1C`: the TGI in assay [1], in assay [2], in assay [3], in [4], in assay [5] and in assay [6] was > 100 µM each time. Moreover, the TGI in assay [7], in assay [8], in [9], in [10], in [11] and in assay [12] was > 100 µM each time.

For the compound `CC(NC1=NCCO1)c1ccccc1Cl` (stereo not given), the TGI in assay [1], in [2], in assay [3], in [4], in [5] and in [6] was > 100 µM throughout. Besides, the TGI in assay [7] is > 100 µM; in assay [8], 73 µM; in assay [9] it was > 100 µM; in assay [10], > 100 µM; in assay [11] it was > 100 µM; in [12], > 100 µM.

For the compound `OC1NC2Nc3ccccc3NC2NC1O` (stereo not given), the TGI in assay [1], in assay [2], in [3], in assay [4], in assay [5] and in assay [6] was > 100 µM in each case. The TGI in assay [7], in [8], in assay [9], in [10], in assay [11] and in assay [12] was > 100 µM throughout.

With `CC(C)(C)OC(=O)NCC(CNC(=O)OC(C)(C)C)C(N)=O`, the TGI in assay [1], in [2], in [3], in assay [4], in assay [5] and in assay [6] was > 100 µM in each case. In addition, the TGI in [7], in [8], in assay [9], in assay [10], in [11] and in assay [12] was > 100 µM each time.

In the case of `CC(C)(C)c1cc(/C=C(\C#N)C2=NCCO2)cc(C(C)(C)C)c1O`, the TGI is 16 µM in assay [1]; 11.9 µM in assay [2]; > 32.9 µM in assay [3]; 16.1 µM in [4]; 29 µM in assay [5]; 10 µM in [6]. Moreover, the TGI in assay [7] was found to be 19.6 µM; in assay [8], 15.2 µM; in [9] it was 20.1 µM; in [10], 13.1 µM; in [11], 8.91 µM; in assay [12] it was 9.06 µM.

For `CCCCN(CC)C(=O)C(=O)Cc1nc2ccc(C(=O)c3ccccc3)cc2[nH]c1=O`, the TGI in assay [1], in assay [2], in assay [3], in assay [4], in [5] and in assay [6] was > 100 µM throughout. For the same compound, the TGI was > 100 µM in [7]; > 100 µM in assay [8]; > 100 µM in assay [9]; > 100 µM in assay [10]; > 31.6 µM in assay [11]; 75 µM in assay [12].

Consider `Fc1cc(C2=Nn3c(COc4ccccc4Cl)nnc3S/C2=C\c2ccc(Cl)cc2)c(Cl)cc1Cl`, for which the TGI in assay [1] was > 100 µM; in assay [2] it was 26.1 µM; in [3], > 100 µM; in [4], 9.06 µM; in assay [5] it was 13.4 µM; in assay [6], > 100 µM. Also, the TGI is > 100 µM in [7]; 20.2 µM in assay [8]; > 100 µM in assay [9]; 20.7 µM in assay [10]; > 100 µM in [11]; 22.6 µM in assay [12].

Take `CC(C)(C)C1=C(Br)C(F)(C(C)(C)C)OP1(=O)c1ccccc1` (stereo not given): the TGI in assay [1] turned out to be 33.1 µM; in assay [2] it was 31.8 µM; in assay [3] it was 32.2 µM; in [4], 36.2 µM; in assay [5] it was 34.1 µM; in [6], 36.6 µM. For the same compound, the TGI in assay [7] came to 36.4 µM; in [8] it was 34.2 µM; in assay [9], 31 µM; in assay [10], 36.9 µM; in assay [11] it was 31.4 µM; in assay [12], 30.8 µM.

For the compound `COC(=O)c1ccc(NCc2cc(OC)ccc2OC)cc1`, the TGI in assay [1], in assay [2], in [3], in assay [4], in [5] and in assay [6] was > 100 µM each time. Moreover, the TGI in assay [7], in assay [8], in assay [9], in [10], in assay [11] and in assay [12] was > 100 µM each time.

For the compound `COc1ccc(/[N+]([O-])=C/c2ccc(OC(=S)S)c(OC)c2)cc1`, the TGI in assay [1], in assay [2], in [3], in [4], in assay [5] and in assay [6] was > 100 µM throughout. The TGI is > 100 µM in assay [7]; 81 µM in assay [8]; > 100 µM in assay [9]; > 100 µM in assay [10]; 63.5 µM in [11]; > 100 µM in assay [12].

On to `COc1ccc2c(c1)c1c3c(ccc4ncn2c43)N(CCO)CCN=1`, for which the TGI in assay [1] came to 2.23 µM; in assay [2] it was 0.214 µM; in assay [3], 2.03 µM; in [4], 1.86 µM; in assay [5] it was 0.941 µM; in [6] it was 0.715 µM. Besides, the TGI in assay [7] stood at 1.72 µM; in assay [8] it was 5.2 µM; in [9], 0.522 µM; in assay [10], 0.611 µM; in [11] it was 0.207 µM; in [12], 0.277 µM.
